This note sets out measurements from the METLIN SMRT retention time set (Domingo-Almenara et al. 2019).

The data set can be described thus: gradient 5% acetonitrile 3 min, to 50% in 2 min, to 85% in 15 min, held 3 min, 100 µL/min. Conditions: column: Zorbax Extend-C18 2.1 x 50 mm; eluents: water / acetonitrile, 0.1% formic acid. The method, boiled down: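 The mobile phases were water and acetonitrile, each with 0.1% formic acid, pumped at 100 μL/min through a Zorbax Extend-C18 column (2.1 × 50 mm, 1.8 μm). Pure standards were injected as mixtures of ~100 molecules and detected by a quadrupole time-of-flight mass spectrometer in positive and negative ionization mode. Retention time came from computationally picked adduct peaks, each inspected by hand.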
`Cn1c(=O)c(N2CCCC(C(=O)N3CCN(Cc4ccc5c(c4)OCO5)CC3)C2)nc2ccccc21` (stereo not drawn) came in with an RP-LC retention time of 674 s.

`O=C(NCc1cccnc1)C1CCN(c2nc3ccc(-c4cncnc4)nc3s2)CC1`: the RP-LC retention time is 584 s.

Take `CCc1cc(C(=O)Nc2ccc(F)cc2)nc2ccnn12`: the RP-LC retention time worked out at 997 s.

As for `O=C(NCc1noc(COc2ccccc2)n1)c1ccc(-c2noc(C3CC3)n2)cc1`, the RP-LC retention time worked out at 940 s.

Take `Cc1ccc(Nc2c(-c3cccc(Cl)c3)nc3ccc(C)cn23)cc1`: the RP-LC retention time was 804 s.

The molecule `CCOc1cc(C(=O)Nc2ccc(-c3cn4cccnc4n3)cc2)cc(OCC)c1OCC` showed an RP-LC retention time of 759 s.

Take `O=c1ccc(-c2ccc3c(c2)OCO3)nn1CCc1nc(-c2ccc(Cl)c(F)c2)no1`: the RP-LC retention time amounted to 1050 s.

In turn, `O=C(CSc1nnc(CCc2nc3ccccc3[nH]2)o1)NCCc1ccc(Cl)cc1` yielded an RP-LC retention time of 601 s.

Molecule `COCCN1CCC(N2CCN(S(=O)(=O)c3ccc(OC)c(Cl)c3)CC2)C1=O` (stereo not drawn) displayed an RP-LC retention time of 583 s.

On to `O=C(NC1CCCCCC1)c1nnn(Cc2ccccc2)c1-n1cccc1`, for which the RP-LC retention time amounted to 1120 s.

On to `O=C(CCC1CCN(c2cc(NC3CC3)ncn2)CC1)NCc1ccccc1F`, for which the RP-LC retention time turned out to be 673 s.

`COc1ccc(-c2noc(Cc3nnc(-c4cccc(Br)c4)o3)n2)cc1OC` registered an RP-LC retention time of 988 s.

Molecule `CCc1nc2cc3c(cc2n1CC(=O)N1CCOCC1)OCCO3` returned an RP-LC retention time of 567 s.

In the case of `COc1ccc(C2CC(=O)N(c3ccc(C)c(F)c3)C(=O)C2)cc1OC`, the RP-LC retention time was determined as 867 s.

Turning to `CCOC(=O)c1c(C)n(CC(=O)OC)c2ccc(OC)cc12`, the RP-LC retention time is 904 s.

Take `COc1ccc(C2C(C(=O)NC(C)C)c3ccccc3C(=O)N2C)cc1` (stereo not drawn): the RP-LC retention time was 730 s.

Turning to `COc1cccc(-c2nc(C3CCN(S(=O)(=O)c4ccccc4F)CC3)no2)c1`, the RP-LC retention time stood at 1110 s.

`COC(=O)c1cc(C)nc2c1c(=O)n(Cc1cccc(C#N)c1)c(=O)n2C` had an RP-LC retention time of 952 s.

For `COc1ccc(Nc2cc(C(=O)N3CCCC3)nc3ccc(C)cc23)cc1`, the RP-LC retention time is 659 s.

For `C[C@@H]1C(=O)O[C@H]2C[C@@]34[C@H]5C[C@@H](C(C)(C)C)[C@]36[C@@H](OC(=O)[C@@H]6O)O[C@@]4(C(=O)O5)[C@]21O`, the RP-LC retention time was 715 s.

As to `COc1ccc(-c2noc(-c3ccc(N4CCN(C(=O)c5ccco5)CC4)nc3)n2)cc1`, the RP-LC retention time came to 989 s.

In turn, `CCCN1CCN(C(=O)c2cccn2Cc2noc(-c3ccccc3)n2)CC1` showed an RP-LC retention time of 653 s.

As for `CCCc1c(C(=O)O)nnn1-c1ccc(C)cc1F`, the RP-LC retention time was determined as 761 s.

The molecule `O=C(CSc1ccc(N2CCCC(C(=O)NC3CC3)C2)nn1)Nc1ccc(F)cc1` (stereo not drawn) showed an RP-LC retention time of 629 s.

Turning to `Cc1cc(C)n(Cc2nc(-c3ccc(NC(=O)c4ccc(C)s4)cc3)oc2C)n1`, the RP-LC retention time came out at 955 s.

Molecule `CC(CNC(=O)c1cc2n(n1)CC(C)(C(=O)NC1CCCCC1)N(C)C2=O)c1ccccc1` (stereo not drawn) registered an RP-LC retention time of 795 s.

Molecule `Cc1cnc(C(=O)NC2C[C@H]3CC[C@@H](C2)N3C(=O)c2ccoc2)cn1` (stereo partly drawn) had an RP-LC retention time of 601 s.

With `O=C(c1cccc(Br)c1)N1CCc2nc(-c3ccc(F)cc3)ncc2C1`, the RP-LC retention time stood at 1010 s.

`CCn1ccc(C(=O)Nc2cnc(-c3cccc(Cl)c3)nc2)n1` returned an RP-LC retention time of 1020 s.

As to `O=S(=O)(c1ccc2c(c1)-c1oncc1CO2)N1CCN(c2ccc(F)cc2)CC1`, the RP-LC retention time stood at 1040 s.

The molecule `O=C(Nc1ncc(Cc2ccccc2Cl)s1)c1cc2ccccc2c(=O)o1` yielded an RP-LC retention time of 991 s.

`CCCn1c(=O)c2cc(C(=O)Nc3ccccc3)nn2c2ccccc21` came in with an RP-LC retention time of 1030 s.

`CCC(C)n1c(=O)c2ccccc2n(Cc2nc(-c3ccccc3)no2)c1=O` (stereo not drawn) gave an RP-LC retention time of 1190 s.

Regarding `COc1ccccc1NC(=O)c1cn2c(n1)CCCC2`, the RP-LC retention time is 622 s.

Molecule `O=C(Cn1c(=O)oc2ccccc21)N1CCC(c2noc(-c3cccnc3)n2)C1` (stereo not drawn) registered an RP-LC retention time of 702 s.

Take `Cc1cc(C)cc(N2CCC(NC(=O)Cc3cccs3)C2=O)c1` (stereo not drawn): the RP-LC retention time amounted to 862 s.

`Cc1ccc(NS(=O)(=O)c2cc(-c3[nH]ncc3C(=O)N3CCCCC3)oc2C)cc1C` displayed an RP-LC retention time of 821 s.

`CN1c2cc(C(=O)NCc3ccc(OC(F)(F)F)cc3)ccc2C(=O)N2CCCCC21` (stereo not drawn) registered an RP-LC retention time of 932 s.

Take `Cc1ccc(C)c(NC(=O)C2CCN(C(=O)C3Sc4ccccc4NC3=O)CC2)c1` (stereo not drawn): the RP-LC retention time turned out to be 760 s.

With `COC(=O)C1=CN(c2ccc(F)cc2)c2cc(Br)ccc2S1(=O)=O`, the RP-LC retention time turned out to be 963 s.

Molecule `COc1ccc(Cl)cc1S(=O)(=O)N1CCC(C(=O)NCCCOC(C)C)CC1` registered an RP-LC retention time of 804 s.

With `CN(C)S(=O)(=O)c1ccc(-c2nnc(C(=O)NCc3ccccc3)o2)cc1`, the RP-LC retention time was 831 s.

In the case of `O=C(c1cc(-c2cccnc2)n[nH]1)N1CCN(C(=O)C2CCCC2)CC1`, the RP-LC retention time is 594 s.

`O=C(CSc1nc(-c2ccccc2)cs1)NCc1ccco1` showed an RP-LC retention time of 839 s.

`O=C(Cc1csc2nc(-c3ccccc3)cn12)N1CCCc2ccccc21` returned an RP-LC retention time of 873 s.

`CCn1cc(-c2nc(C(=O)Nc3ccccc3OC)cs2)c2cccnc21` came in with an RP-LC retention time of 1180 s.

`CCN1C(=O)c2cccnc2Sc2cc(NC(=O)C3(c4ccc(OC)cc4)CC3)ccc21` registered an RP-LC retention time of 939 s.

Turning to `CC(C)NC(=O)C1CCCN(c2nc3ncn(CC(=O)NC4CCCCC4)c(=O)c3s2)C1` (stereo not drawn), the RP-LC retention time is 666 s.

On to `Cc1ccc(S(=O)(=O)NCc2c(-c3ccccc3)nc3sc(C)nn23)c(C)c1`, for which the RP-LC retention time was determined as 922 s.

`COCCSc1nnc(NC(=O)C2CCN(C(=O)c3ccccc3F)CC2)s1` came in with an RP-LC retention time of 680 s.

With `O=C(NCc1ccc(Cl)cc1)C1CCCN(c2cnc3nccnc3c2)C1` (stereo not drawn), the RP-LC retention time worked out at 731 s.

For `CNC(=O)N1CCCC(c2cccc(C(=O)NCc3ccc(SC)cc3)c2)C1` (stereo not drawn), the RP-LC retention time was found to be 779 s.

`COc1ccc(Cl)cc1C(=O)CN1C(=O)COc2ccccc2C1=O` displayed an RP-LC retention time of 988 s.

With `CCOC(=O)c1ccc2nc(C)cc(NC(=O)c3cccs3)c2c1`, the RP-LC retention time turned out to be 607 s.

Consider `COc1cc(-c2noc(Cn3cnc4c(cnn4-c4ccccc4)c3=O)n2)cc(OC)c1OC`, for which the RP-LC retention time came to 920 s.

As for `Cc1nn(C)cc1C(C)NC(=O)C1CCN(c2cn[nH]c(=O)c2)CC1` (stereo not drawn), the RP-LC retention time turned out to be 568 s.

Regarding `Cc1cc(C)n(-c2nc(C)c(C(=O)N(CCO)Cc3ccccc3)s2)n1`, the RP-LC retention time was 859 s.

In turn, `CC1(C)CCC[C@]2(C)[C@H]3CC(=O)O[C@]3(C)CC[C@@H]12` displayed an RP-LC retention time of 1220 s.
